The subject of one series is Trypanosoma cruzi. Kind of series: Antitrypanosomal activity against Trypanosoma cruzi Y trypomastigotes infected in monkey LLC-MK2 cells assessed as parasite growth inhibition incubated for 24 hrs by resazurin dye based microplate reader assay. Format: functional, organism-based.
Series [1] can be described thus: Cytotoxicity against mouse NCTC clone 929 cells incubated for 48 hrs by MTT spectrophotometric assay. The note with it: NCTC clone 929 (L929) cells. Format: toxicity, cell-based. (In general: Tetrazolium dyes change colour on reduction, which living cells bring about.)
Series [2] in a line: Selectivity index, ratio of CC50 for cytotoxicity against mouse NCTC clone 929 cells to IC50 for antitrypanosomal activity against Trypanosoma cruzi Y trypomastigotes infected in monkey LLC-MK2 cells assessed as parasite growth inhibition. Format: toxicity, cell-based. The note with it: read-out: Ratio CC50/IC50.
[3] abbreviates: Trypanosoma cruzi, Y, LLC-MK2, 24 h, read-out: IC50.

Where only a bound is given, the exact number is not on record here.

`COc1ccc(C)cc1NC(=O)Cn1nc2cc(C)nc(Nc3ccc(F)cc3)n2c1=O`: in the series with Trypanosoma cruzi, the IC50 (in general, the concentration that gives 50% inhibition) is on record as “Not Active”.
Regarding `Cc1ccc(NC(=O)Cn2nc3cc(C)nc(Nc4ccc(F)c(C)c4)n3c2=O)cc1`, the IC50 entry with Trypanosoma cruzi is “Not Active”.
For the compound `Cc1cc(C)cc(Nc2nc(C)cc3nn(CC(=O)Nc4ccc(C)c(F)c4)c(=O)n23)c1`, in the series on Trypanosoma cruzi, the IC50 result is “Not Active”.
Regarding `Cc1cc2nn(CC(=O)Nc3cc(F)cc(F)c3)c(=O)n2c(Nc2ccc(C)c(F)c2)n1`, the IC50 result with Trypanosoma cruzi is listed as “Not Active”.
As for `Cc1nn(C)c2[nH]c(=O)c(CCC(=O)NC[C@@H]3CCCc4ccccc43)c(C)c12`, the IC50 entry in the series on Trypanosoma cruzi was “Not Active”.
`Cc1ccc2nc(NC(=O)[C@H]3CCCN3S(=O)(=O)c3cccc4nsnc34)sc2c1`: the IC50 result in the series with Trypanosoma cruzi is listed as “Not Active”.
For `Cc1cc(C)c2cc(C(=O)NCc3ccccc3Cn3cncn3)[nH]c2c1`, in the series on Trypanosoma cruzi, the IC50 entry is given as “Not Active”.
Take `CC(C)Nc1cc(C(=O)c2cc(F)ccc2O)cn2c(=O)c3ccccc3nc12`: the IC50 result in the series on Trypanosoma cruzi is “Not Active”.
`Cc1ccc(-n2nnnc2S[C@@H](C)C(=O)NC(=O)Nc2ccccc2)cc1`: the IC50 result in the series on Trypanosoma cruzi is reported as “Not Active”.
Consider `Cc1nn(C)c2[nH]c(=O)c(/C=C/C(=O)NCCc3ccc(Cl)cc3Cl)c(C)c12`, for which the IC50 result with Trypanosoma cruzi is recorded as “Not Active”.
On to `CC(=O)c1cn(CC(=O)NCCCc2nnc3ccccn23)c2ccccc12`, for which the IC50 result with Trypanosoma cruzi was “Not Active”.
`COc1ccc(OC)c(Nc2nc(NCCCO)nc3c2cnn3-c2ccccc2)c1`: the IC50 in the series with Trypanosoma cruzi (setting [3]) stood at 10.1 µM. The CC50 (usually the concentration at which the toxic effect on the cells reaches its halfway point) at 48 h in series [1] is above 200 µM. For the same compound, the selectivity ratio in series [2] was above 19.8.
As to `OCCCNc1nc(Nc2ccccc2)c2cnn(-c3ccccc3)c2n1`, in the series on Trypanosoma cruzi (setting [3]), the IC50 was determined as 7.1 µM. Besides, the CC50 at 48 h in series [1] was 85.2 µM. Also, the selectivity ratio in series [2] worked out at 12.
Turning to `Cc1ccc(-n2cnnn2)cc1NC(=O)N[C@H](C)c1cccc(Cl)c1`, the IC50 entry in the series with Trypanosoma cruzi is given as “Not Active”.
With `OCCCNc1nc(Nc2ccc(F)cc2)c2cnn(-c3ccccc3)c2n1`, the IC50 in the series with Trypanosoma cruzi (setting [3]) is 14.8 µM. The CC50 at 48 h in series [1] was 39.2 µM. In addition, the selectivity ratio in series [2] stood at 2.6.
As to `Cc1ccc(-c2noc(C(=O)NCCNC(=O)COc3ccc(Cl)c(C)c3)n2)cc1`, in the series on Trypanosoma cruzi, the concentration for half-maximal inhibition (IC50) entry was “Not Active”.
`Cn1nnc2cc(C(=O)Nc3nccn3Cc3ccccc3Cl)ccc21`: in the series with Trypanosoma cruzi, the IC50 result is listed as “Not Active”.
For `CC[C@]1(c2ccccc2)NC(=O)N(NC(=O)CSc2nc(C)nc3sc(C)c(C)c23)C1=O`, in the series with Trypanosoma cruzi (setting [3]), the IC50 stood at 13.6 µM. Besides, in series [1], the CC50 at 48 h is above 200 µM. For the same compound, the selectivity ratio in series [2] is above 14.7.
With `CCOc1ccc(CCNC(=O)C2CCN(c3ncnc4onc(C)c34)CC2)cc1`, in the series on Trypanosoma cruzi, the IC50 result is listed as “Not Active”.
As for `Cc1cccc(NC(=O)[C@@H](Cc2ccccc2)NS(=O)(=O)c2cccc3nsnc23)c1`, the IC50 in the series with Trypanosoma cruzi (setting [3]) amounted to 22.8 µM. The same compound returned a CC50 at 48 h in series [1] of 79.5 µM. Besides, the selectivity ratio in series [2] worked out at 3.5.
In the same order, the values of `COc1ccccc1OCC#CCNS(=O)(=O)c1ccc(Cl)c(Cl)c1` are 32.1 µM, 128 µM and 4.
For the compound `COc1ccc2nc(NC(=O)CN(C)S(=O)(=O)c3cccc4nsnc34)sc2c1`, the IC50 entry in the series on Trypanosoma cruzi is recorded as “Not Active”.
Consider `Cc1ccc(NC(=O)NC(=O)[C@@H](C)Sc2nncn2Cc2ccco2)c(C)c1`, for which the concentration for half-maximal inhibition (IC50) result with Trypanosoma cruzi is listed as “Not Active”.
Take `Cc1ccccc1Nc1nc(N(C)CCO)nc2c1cnn2-c1ccccc1`: the IC50 with Trypanosoma cruzi (setting [3]) was determined as 12.8 µM. In addition, in series [1], the midpoint of cytotoxicity, the CC50 at 48 h, lay at 25 µM. Further, the selectivity ratio in series [2] came out at 2.
For the compound `Cc1cc(C)c2cc(C(=O)Nc3ccccc3-n3cncn3)[nH]c2c1`, in the series with Trypanosoma cruzi (setting [3]), the IC50 turned out to be 9 µM. In series [1], this compound showed a CC50 at 48 h of 80.9 µM. Further, the selectivity ratio in series [2] came out at 8.9.
In the case of `Cc1cn([C@@H](C)c2ccccc2)nc1NC(=O)CCc1nc(C(C)C)no1`, the IC50 result in the series with Trypanosoma cruzi is listed as “Not Active”.
For `CCN(CCO)c1nc(Nc2cc(OC)ccc2OC)c2cnn(-c3ccccc3)c2n1`, the IC50 result with Trypanosoma cruzi is “Not Active”.
Consider `Cc1ccc(-n2nnnc2S[C@@H](C)C(=O)NCC(=O)Nc2ccc(F)c(F)c2F)c(C)c1`, for which the IC50 in the series with Trypanosoma cruzi (setting [3]) came out at 37.8 µM. Besides, half-maximal cytotoxicity in series [1] (CC50 at 48 h) was put at 52.8 µM. Moreover, the selectivity ratio in series [2] came out at 1.4.
For the compound `Cc1ccc(C[C@H](C)NC(=O)Nc2ccc(C)c(-n3cnnn3)c2)s1`, the IC50 result with Trypanosoma cruzi is recorded as “Not Active”.
`O=C(Nc1ccc(F)cc1F)[C@H](NS(=O)(=O)c1cccc2nsnc12)c1ccccc1`: the IC50 in the series on Trypanosoma cruzi (setting [3]) is 55.2 µM. This compound also registered a CC50 at 48 h in series [1] above 200 µM. Further, the selectivity ratio in series [2] was above 3.6.
Consider `CCCOCc1ccccc1CNC(=O)Nc1cnc2c(c1)c(C)nn2C`, for which the IC50 with Trypanosoma cruzi (setting [3]) was 68.9 µM. This compound registered a CC50 at 48 h in series [1] of 66.9 µM. In addition, in series [2], the selectivity ratio is 1.
Regarding `CCOc1ccccc1C(=O)NCC(=O)N1CCC[C@@H](c2nnc3n2CCCCC3)C1`, in the series on Trypanosoma cruzi, the IC50 result is “Not Active”.
Regarding `O=C(Cn1ccnc1[N+](=O)[O-])NCc1ccccc1` [BENZNIDAZOLE], the IC50 in the series on Trypanosoma cruzi (setting [3]) is 18.4 µM. In series [1], this compound had a CC50 at 48 h above 200 µM. Also, in series [2], the selectivity ratio was above 10.7.

Values taken from ChEMBL document CHEMBL5325404, “Identification of inhibitors as drug candidates against Chagas disease” (Eur J Med Chem, 2023).
